# Paper PMC7708037, “Targeting OGG1 arrests cancer cell proliferation by inducing replication stress” (Nucleic Acids Research, 2020)
# Tests used:
# [1] = tested on: CD3+ T-cells; test: CD3 flow cytometry assay (T-cell survival); type: cell-based; design: Survival of CD3+ T-cells (flow cytometry): dose or concentration left out as unconfirmed
# Experimental: The experiment was performed on blood cells from 4 different healthy individuals, with three replicates each. Human peripheral blood mononuclear cells were isolated from fresh buffy coats obtained from healthy donors via the Karolinska Hospital, Stockholm, Sweden. For separation, Ficoll-Paque PLUS density medium (17144003, GE Healthcare) and SepMate separation tubes (85450, StemCell) were used, according to manufacturer's instructions. Briefly, buffy coat diluted 1:1 with PBS and layered on 15 ml of Ficoll-Paque PLUS in the SepMate tubes was spun down for 10 min at […]. The upper layer of the tube content was then poured into new falcon tubes and washed twice with PBS.
# Cells were seeded out in round bottom 96-well plates (83.3925.500, Sarstedt) in RPMI Medium 1640 containing GlutaMAX™ (61870-010, ThermoFisher) supplemented with 10% human AB+ male heat inactivated clotted whole blood serum (H5667, Sigma-Aldrich) and 100 U/ml penicillin/streptomycin (15140122, Gibco). […] Only viable cells were counted, using a TC20™ automated cell counter (Bio-Rad) and Trypan blue (1450021, Bio-Rad). […]
# 10 000 events from an FSC-SSC gate set on the typical living lymphocyte population were collected and the data was compensated and analyzed using FlowJo 10.5.3. […] The number of CD3 positive, viable events was quantified and then divided by the number of Precision Count Beads™ collected per tube. […]
# [2] = tested on: HEK293T and HEK293T(KO) cells; test: Colony area of HEK293T vs HEK293T(KO); type: cell-based, human; conditions: 8 days exposure
# Excerpt: 250 HEK293T or HEK293T (KO) cells were counted and seeded in 6-well plates for 8 days in the presence or absence of TH5487 at indicated concentrations. Colonies were directly scanned after removing media and drying colonies. Area of HEK293T or HEK293T(KO) colonies was digitally colour contrasted and then analysed using ImageJ. […]
# untreated parental HEK293T. Data are average ±SEM of 4 technical replicates from 2 independent experiments. F. Comparative analysis of the colony area (pixels) for HEK293T or HEK293T(KO) cells exposed for eight days to TH5487 or DMSO. Data are average ±SEM of 4 technical replicates from 2 independent experiments. Statistical significance was determined using Mann Witney test (**, P<0.01, ***, P<0.001 and ****, P<0.0001 , ns, non-significant).
# Supplementary Fig. S6: 8 -oxodG levels and cell cycle distribution. A. 8-oxodG accumulation in A3 knockdown cells. The indicated shNT cells were treated with 250 ng/ml doxycycline for 0, 96, or 144 h, and the amount of genomic 8-oxodG was quantified with LC -MS/MS. […] Cells were treated with 10 µM TH5487 or an equivalent volume DMSO for the indicated times, and the cell cycle distribution was determined by flow cytometry. […] A3 shNT (grey), sh2 (blue), and sh3 (red), were treated with 250 ng/ml doxycycline for 48 –120 h, and the cell cycle distribution was determined with flow cytometry. […]
# [3] = design: method as in PMID 30442810; conditions: cited from earlier work
smiles,measurement,setting,value
O=C(Nc1ccc(I)cc1)N1CCC(n2c(=O)[nH]c3c(Br)cccc32)CC1 [TH5487],Survival of CD3+ T-cells (flow cytometry),"[1]; Dynabeads-activated, 6 days",well tolerated
same,Tolerance by primary T-cells,"[1]; the same dose (10 μM), healthy donors",well tolerated
same,"Colony area, HEK293T compared to HEK293T (KO)",[2],significantly reduced
same,Tolerability in mice,[3],well tolerated
